Publication PMC7608132 (Acta Pharmacologica Sinica, 2020)
Where two headings read alike, the source gives them in different places. One block for each compound: values may come before it.

What was measured:
[1] = rifampin; cited from earlier work
[2] = HLMs, 3 µM alflutinib, selective inhibitor at the concentration of b13

Suppression of the production of AST5902 (CYP enzymes in HLMs): 98%
Structure (SMILES): Nn1nnc2ccccc21 [ABT, 1-aminobenzotriazole]

Suppression of the production of AST5902 (CYP enzymes in HLMs; [2]): 45%
Structure (SMILES): Nc1ccc(S(=O)(=O)Nc2ccnn2-c2ccccc2)cc1 [Sulfaphenazole, sulfaphenazole]

Continued, compound first:

Structure (SMILES): O=c1cc(-c2ccccc2)oc2c1ccc1ccccc12 [α-Naphthoflavone, α-naphthoflavone]
Effect on the formation of alflutinib metabolites (CYP enzymes in HLMs): no significant effects

Structure (SMILES): O=c1c(O)c(-c2ccc(O)c(O)c2)oc2cc(O)cc(O)c12 [Quercetin, quercetin]
Suppression of the production of AST5902 (CYP enzymes in HLMs; [2]): 68%

Structure (SMILES): CO[C@H]1/C=C/O[C@@]2(C)Oc3c(C)c(O)c4c(O)c(c(/C=N/N5CCN(C)CC5)c(O)c4c3C2=O)NC(=O)/C(C)=C\C=C\[C@H](C)[C@H](O)[C@@H](C)[C@@H](O)[C@@H](C)[C@H](OC(C)=O)[C@@H]1C [Rifampin]
In vivo concentrations [1]: 10 to 18 µM

Structure (SMILES): Cc1ncsc1CCCl [chlormethiazole]
Effect on the formation of alflutinib metabolites (CYP enzymes in HLMs; HLMs, α-naphthoflavone 2 µM, chlormethiazole 24 µM): no significant effects
